According to article PMC8788362, “Rational design and synthesis of 2-(1H-indazol-6-yl)-1H-benzo[d]imidazole derivatives as inhibitors targeting FMS-like tyrosine kinase 3 (FLT3) and its mutants” (Journal of Enzyme Inhibition and Medicinal Chemistry, 2022):
Read-outs that look alike come from different tables or passages of the source.

How the values were obtained:
FLT3 (F594_R595 ins R) = target: T1, FLT3 (F594_R595 ins R) (Homo sapiens, UniProt P36888, INS594R); assay: Reaction Biology Kinase HotSpot radiometric kinase assay; type: biochemical
T1 construct: purchased Reaction Biology Corp. (Kinase HotSpot service)
Source text: (§1) (specific activity approx. 500 cpm/pmol, concentration as required).

FLT3 (ITD)-NPOS = FLT3 (ITD)-NPOS (Homo sapiens, UniProt P36888, ITD); assay: as above; type: biochemical
Source text: as §1

FLT3 (ITD)-W51 = target: T2, FLT3 (ITD)-W51 (Homo sapiens, UniProt P36888, DUP595-601); assay: as above; type: biochemical
T2 construct: purchased Reaction Biology Corp. (Kinase HotSpot service)
Source text: as §1

FLT3 (R595_E596 ins EY) = target: T3, FLT3 (R595_E596 ins EY) (Homo sapiens, UniProt P36888, INS595EY); assay: as above; type: biochemical
T3 construct: purchased Reaction Biology Corp. (Kinase HotSpot service)
Source text: as §1

[1] = target: T4, FLT3 (Y591_V592 ins VDFREYEYD) (Homo sapiens, UniProt P36888, INS591VDFREYEYD); assay: as above; type: biochemical
T4 construct: purchased Reaction Biology Corp. (Kinase HotSpot service)
Source text: as §1

ABL1 = target: T5, ABL1 (Homo sapiens, UniProt P00519); assay: Reaction Biology Kinase HotSpot kinase assay; type: biochemical
T5 construct: purchased Reaction Biology Corp. (Kinase HotSpot service)
Source text: as §1

CAMKK1 = target: T6, CAMKK1 (Homo sapiens, UniProt Q8N5S9); assay: Reaction Biology Kinase HotSpot kinase assay; type: biochemical
T6 construct: purchased Reaction Biology Corp. (Kinase HotSpot service)
Source text: as §1

TRKC = target: T7, TRKC (Homo sapiens, UniProt Q16288); assay: Reaction Biology Kinase HotSpot kinase assay; type: biochemical
T7 construct: purchased Reaction Biology Corp. (Kinase HotSpot service)
Source text: as §1

c-Kit = target: T8, c-Kit (Homo sapiens, UniProt P10721); assay: Reaction Biology Kinase HotSpot kinase assay; type: biochemical
T8 construct: purchased Reaction Biology Corp. (Kinase HotSpot service)
Source text: as §1

AKT1 = target: T9, AKT1 (Homo sapiens, UniProt P31749); assay: Kinase HotSpot kinase profiling; type: biochemical; conditions: read-out: % Inhibition AKT1
T9 construct: purchased Reaction Biology Corp. (Kinase HotSpot service)
Source text: as §1

ALK = target: T10, ALK (Homo sapiens, UniProt Q9UM73); assay: Kinase HotSpot kinase profiling; type: biochemical; conditions: read-out: % Inhibition ALK
T10 construct: purchased Reaction Biology Corp. (Kinase HotSpot service)
Source text: as §1

AXL = target: T11, AXL (Homo sapiens, UniProt P30530); assay: Kinase HotSpot kinase profiling; type: biochemical; conditions: read-out: % Inhibition AXL
T11 construct: purchased Reaction Biology Corp. (Kinase HotSpot service)
Source text: as §1

AXL (R499C) = target: T12, AXL (R499C) (Homo sapiens, UniProt P30530, R499C); assay: Kinase HotSpot kinase profiling; type: biochemical; conditions: read-out: % Inhibition AXL (R499C)
T12 construct: purchased Reaction Biology Corp. (Kinase HotSpot service)
Source text: as §1

Aurora A = target: T13, Aurora A (Homo sapiens, UniProt O14965); assay: Kinase HotSpot kinase profiling; type: biochemical; conditions: read-out: % Inhibition Aurora A
T13 construct: purchased Reaction Biology Corp. (Kinase HotSpot service)
Source text: as §1

BRAF (V599E) = target: T14, BRAF (V599E) (Homo sapiens, UniProt P15056, V600E); assay: Kinase HotSpot kinase profiling; type: biochemical
T14 construct: purchased Reaction Biology Corp. (Kinase HotSpot service)
Source text: as §1

BTK = target: T15, BTK (Homo sapiens, UniProt Q06187); assay: Kinase HotSpot kinase profiling; type: biochemical; conditions: read-out: % Inhibition BTK
T15 construct: purchased Reaction Biology Corp. (Kinase HotSpot service)
Source text: as §1

EGFR = target: T16, EGFR (Homo sapiens, UniProt P00533); assay: Kinase HotSpot kinase profiling; type: biochemical; conditions: read-out: % Inhibition EGFR
T16 construct: purchased Reaction Biology Corp. (Kinase HotSpot service)
Source text: as §1

ERK1 = target: T17, ERK1 (Homo sapiens, UniProt P27361); assay: Kinase HotSpot kinase profiling; type: biochemical; conditions: read-out: % Inhibition ERK1
T17 construct: purchased Reaction Biology Corp. (Kinase HotSpot service)
Source text: as §1

FGFR3 = target: T18, FGFR3 (Homo sapiens, UniProt P22607); assay: Kinase HotSpot kinase profiling; type: biochemical; conditions: read-out: % Inhibition FGFR3
T18 construct: purchased Reaction Biology Corp. (Kinase HotSpot service)
Source text: as §1

FLT3-ITD = FLT3-ITD (Homo sapiens, UniProt P36888, ITD); assay: Kinase HotSpot kinase profiling; type: biochemical
Source text: as §1

FMS = target: T19, FMS (Homo sapiens, UniProt P07333); assay: Kinase HotSpot kinase profiling; type: biochemical; conditions: read-out: % Inhibition FMS
T19 construct: purchased Reaction Biology Corp. (Kinase HotSpot service)
Source text: as §1

FYN = target: T20, FYN (Homo sapiens, UniProt P06241); assay: Kinase HotSpot kinase profiling; type: biochemical
T20 construct: purchased Reaction Biology Corp. (Kinase HotSpot service)
Source text: as §1

c-MER = target: T21, c-MER (Homo sapiens, UniProt Q12866); assay: Kinase HotSpot kinase profiling; type: biochemical; conditions: read-out: % Inhibition c-MER
T21 construct: purchased Reaction Biology Corp. (Kinase HotSpot service)
Source text: as §1

c-MET = target: T22, c-MET (Homo sapiens, UniProt P08581); assay: Kinase HotSpot kinase profiling; type: biochemical; conditions: read-out: % Inhibition c-MET
T22 construct: purchased Reaction Biology Corp. (Kinase HotSpot service)
Source text: as §1

c-Src = target: T23, c-Src (Homo sapiens, UniProt P12931); assay: Kinase HotSpot kinase profiling; type: biochemical; conditions: read-out: % Inhibition c-Src
T23 construct: purchased Reaction Biology Corp. (Kinase HotSpot service)
Source text: as §1

CCN1CCN(Cc2cc(C(=O)Nc3ccc4[nH]c(-c5ccc6cn[nH]c6c5)nc4c3)cc(C(F)(F)F)c2)CC1 [8r, N-(2-(1H-Indazol-6-yl)-1H-benzo[d]imidazol-5-yl)-3-((4-ethylpiperazin-1-yl)methyl)-5-(trifluoromethyl)benzamide]
IC50 (FLT3 (F594_R595 ins R)): 37.3 nM
inhibition at 1 µM (FLT3 (F594_R595 ins R); read-out: % Inhibition FLT3 (F594_R595insR)): 92%
IC50 (FLT3 (ITD)-NPOS): 41.5 nM
inhibition at 1 µM (FLT3 (ITD)-NPOS): 88%
IC50 (FLT3 (ITD)-W51): 22.8 nM
inhibition at 1 µM (FLT3 (ITD)-W51; read-out: % Inhibition FLT3 (ITD)-W51): 93.9%
IC50 (FLT3 (R595_E596 ins EY)): 24.8 nM
inhibition at 1 µM (FLT3 (R595_E596 ins EY); read-out: % Inhibition FLT3 (R595_E596insEY)): 93.9%
IC50 [1]: 49.5 nM
inhibition at 1 µM ([1]; read-out: % Inhibition FLT3 (Y591_V592insVDFREYEYD)): 90.9%
IC50 (ABL1): 3090 nM
inhibition at 1 µM (ABL1; read-out: % Inhibition ABL1): 18.4%
IC50 (CAMKK1): 395 nM
inhibition at 1 µM (CAMKK1; read-out: % Inhibition CAMKK1): > 20%
inhibition at 1 µM (CAMKK1; read-out: % Inhibition CAMKK1, 8r at 1 µM single dose): 32.5%
IC50 (TRKC): 1520 nM
inhibition at 1 µM (TRKC): > 20%
IC50 (c-Kit): 4570 nM
inhibition at 1 µM (c-Kit; read-out: % Inhibition c-Kit): 19%
inhibition at 1 µM (AKT1): 3.09%
inhibition at 1 µM (ALK): 7.5%
inhibition at 1 µM (AXL): 1.88%
inhibition at 1 µM (AXL (R499C)): 6.64%
inhibition at 1 µM (Aurora A): 7.47%
inhibition at 1 µM (BRAF (V599E)): 1%
inhibition at 1 µM (BTK): 17.5%
inhibition at 1 µM (EGFR): 0.274%
inhibition at 1 µM (ERK1): 0%
inhibition at 1 µM (FGFR3): 0%
inhibition at 1 µM (FLT3-ITD): 88%
inhibition at 1 µM (FMS): 0.531%
inhibition at 1 µM (FYN): 18%
inhibition at 1 µM (c-MER): 7.3%
inhibition at 1 µM (c-MET): 6.53%
inhibition at 1 µM (c-Src): 1.94%
melting point: 265 to 267 °C
